From patent US20060154898A1, “Diphosphonate solutions” (priority 2000, published 2006)
Where a name gives a salt, the structure may show the parent alone.

Test: pH of a diphosphonate solution in distilled water
Format: physicochemical
Settings: solution of one percent in distilled water
Text: Solutions of diphosphonates will generally have a pH above that desired. For example, a solution of one percent pamidronate disodium salt in distilled water has a pH of approximately 8.3. The pH is adjusted with a suitable acid or alkali. Suitable acids include any acid such as hydrochloric or phosphoric acid. Phosphoric acid is preferred. Suitable […] include sodium hydroxide.

## NCCC(O)(P(=O)(O)O)P(=O)(O)O [pamidronate disodium salt]
  pH of solution: approximately 8.3
